Experimental data from US20230183243A1, “HETEROARYL DERIVATIVES AND PHARMACEUTICAL COMPOSITION COMPRISING SAME AS ACTIVE INGREDIENT” (VORONOI INC., priority 2019, published 2023).

Key:
MDA-MB-231 cells = assay: Inhibition of proliferation of triple-negative breast cancer cells, CellTiter-Glo; assay type: cell-based; conditions: Homo sapiens, 120 h; MDA-MB-231, cultured for 5 days
How it was run: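 MDA-MB-231 cells pre-cultured 24 h (5% CO2, 37 °C), then exposed to compound for 5 days at 12 three-fold dilutions, final 10 μM to 0.05 nM. Viability read by CellTiter-Glo luminescence after 10 min at 37 °C; growth inhibition calculated relative to untreated solvent-control cells.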

SHP-77 = assay: Inhibition of proliferation of small cell lung cancer cells, CellTiter-Glo; assay type: cell-based; conditions: Homo sapiens, SHP77, 120 h; SHP-77, cultured for 5 days
How it was run: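 SHP-77 cells at 2,000–3,000 cells/well, cultured 24 h at 37° C, 5% CO2, then given 12 threefold compound dilutions, final 10 μM to 0.05 nM, for 5 days. Viability by CellTiter-Glo luminescence relative to solvent control. GI50 from concentration–response.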

TTK = target: T1, TTK (Homo sapiens, UniProt P33981); assay: TTK enzyme activity, ADP-Glo kinase assay; assay type: biochemical; set-up: purchased SignalChem T20-10G; conditions: purified human TTK, ATP 10 μM, 25° C., 2 hours
T1 sequence (P33981 1-857): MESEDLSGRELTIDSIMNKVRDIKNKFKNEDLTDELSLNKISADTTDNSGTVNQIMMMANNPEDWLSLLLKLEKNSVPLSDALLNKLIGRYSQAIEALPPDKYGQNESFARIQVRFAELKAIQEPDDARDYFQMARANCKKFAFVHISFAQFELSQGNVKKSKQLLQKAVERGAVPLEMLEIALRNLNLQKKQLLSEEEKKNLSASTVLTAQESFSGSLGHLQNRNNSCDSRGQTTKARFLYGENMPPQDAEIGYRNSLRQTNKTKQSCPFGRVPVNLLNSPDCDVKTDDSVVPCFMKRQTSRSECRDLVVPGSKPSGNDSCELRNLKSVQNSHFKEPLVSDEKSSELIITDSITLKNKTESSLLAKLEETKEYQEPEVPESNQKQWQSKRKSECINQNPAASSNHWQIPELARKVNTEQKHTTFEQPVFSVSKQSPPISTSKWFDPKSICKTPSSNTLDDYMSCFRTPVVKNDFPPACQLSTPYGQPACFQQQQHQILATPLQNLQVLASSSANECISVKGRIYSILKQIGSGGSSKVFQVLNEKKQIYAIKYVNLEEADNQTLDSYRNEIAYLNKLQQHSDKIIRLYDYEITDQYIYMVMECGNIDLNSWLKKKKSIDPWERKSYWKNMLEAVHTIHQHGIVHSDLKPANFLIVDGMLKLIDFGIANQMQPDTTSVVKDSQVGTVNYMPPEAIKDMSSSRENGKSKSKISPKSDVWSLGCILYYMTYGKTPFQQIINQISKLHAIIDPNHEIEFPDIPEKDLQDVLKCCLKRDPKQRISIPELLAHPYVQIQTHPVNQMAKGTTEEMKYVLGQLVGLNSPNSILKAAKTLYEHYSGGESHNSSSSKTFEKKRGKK
How it was run: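 Purified human TTK (25 ng) incubated with 10 μM ATP and substrate (0.2 μg) for 2 h at 25 °C in Tris-HCl pH 7.4, MgCl2, BSA, DTT buffer. ADP formation read by ADP-Glo; inhibition calculated against untreated solvent control.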

SMILES | GI50 (MDA-MB-231 cells) [nM] | GI50 (SHP-77) [nM] | IC50 (TTK) [nM]
Cn1nccc1-c1ccc(Nc2nc(NC3C[C@H]4CC[C@@H]3C4)c3c(C#N)c[nH]c3n2)c2c1OCCO2 (stereo partly drawn) [Example 61, 4-(((1R,4S)-bicyclo[2.2.l]heptan-2-yl)amino)-2-((8-(1-methyl-1H-pyrazol-5-yl)-2,3-dihydrobenzo[b][1,4]dioxin-5-yl)amino)-7H-pyrrolo[2,3-d] pyrimidine-5-carbonitrile] | < 100 | < 100 | 50 to 200
COc1cc(-c2nncn2C)ccc1Nc1nc(NC2CCOCC2)c2c(C#N)c[nH]c2n1 [Example 90, 2-((2-methoxy-4-(4-methy1-4H-1,2,4-triazol-3-yl)phenyl)amino)-4-((tetrahydro-2H-pyran-4-yl)amino)-7H-pyrrolo[2,3-d] pyrimidine-5-carbonitrile] | < 100 | < 100 | < 50
COc1cc(Nc2nc(NC3CCOCC3)c3c(C#N)c[nH]c3n2)ccc1-c1c(C)noc1C [Example 138] | < 100 | < 100 | < 50
COCCNc1nc(Nc2ccc(-c3nncn3C)cc2OC)nc2[nH]cc(C#N)c12 [Example 95, 2-((2-methoxy-4-(4-methyl-4H-1,2,4-triazol-3-yl)phenyl)amino)-4-((2-methoxyethyl)amino)-7H-pyrrolo[2,3-d] pyrimidine-5-carbonitrile] | 100 to 1000 | < 100 | < 50
COCCNc1nc(Nc2ccc(-c3cnn(C)c3)cc2OC)nc2[nH]cc(C#N)c12 [Example 97, 2-((2-methoxy-4-(1-methyl-1H-pyrazol-4-yl)phenyl)amino)-4-((2-methoxyethyl)amino)-7H-pyrrolo[2,3-d] pyrimidine-5-carbonitrile] | < 100 | < 100 | < 50
Cn1nccc1-c1ccc(Nc2cc(NC3CCCC3)c3c(C#N)c[nH]c3n2)c2c1OCCO2 [Example 88, 4-(cyclopentylamino)-6-((8-(1-methyl-1H-pyrazol-5-yl)-2,3-dihydrobenzo[b][1,4]dioxin-5-yl)amino)-1H-pyrrolo[2,3-b] pyridine-3-carbonitrile] | < 100 | < 100 | 50 to 200
COc1cc(-c2cnn(C)c2)c(F)cc1Nc1nc(NC2CCCC2)c2c(C#N)c[nH]c2n1 [Example 125, 4-(cyclopentylamino)-2-((5-fluoro-2-methoxy-4-(1-methyl-1H-pyrazol-4-yl)phenyl)amino)-7H-pyrrolo[2,3-d] pyrimidine-5-carbonitrile] | < 100 | 100 to 1000 | < 50
N#Cc1c[nH]c2nc(Nc3ccc(N4CCCC4=O)c4c3OCCO4)nc(NC3C[C@H]4CC[C@@H]3C4)c12 (stereo partly drawn) [Example 148, 4-(((1R,4S)-bicyclo[2.2.1]heptan-2-yl)amino)-2-((8-(2-oxopyrrolidin-1-yl)-2,3-dihydrobenzo[b][1,4]dioxin-5-yl)amino)-7H-pyrrolo[2,3-d] pyrimidine-5-carbonitrile] | < 100 | < 100 | < 50
Cn1nccc1-c1ccc(Nc2nc(NC3CCOC(C)(C)C3)c3c(C#N)c[nH]c3n2)c2c1OCCO2 (stereo not drawn) [Example 109, 4-((2,2-dimethyltetrahydro-2H-pyran-4-yl)amino)-2-((8-(1-methyl-1H-pyrazol-5-yl)-2,3-dihydrobenzo[b][1,4]dioxin-5-yl)amino)-7H-pyrrolo[2,3-d] pyrimidine-5-carbonitrile] | < 100 | < 100 | < 50
Cn1nccc1-c1ccc(Nc2nc(NC3CCCC3)c3c(Cl)c[nH]c3n2)c2c1OCCO2 [Example 128, 5-chloro-N^4-cyclopentyl-N^2-(8-(1-methyl-1H-pyrazol-5-yl)-2,3-dihydrobenzo[b][1,4]dioxin-5-yl)-7H-pyrrolo[2,3-d] pyrimidine-2,4-diamine] | 100 to 1000 | < 100 | 50 to 200
COc1cc(-c2cnn(C)c2)ccc1Nc1nc(NC2CCOCC2)c2c(C#N)c[nH]c2n1 [Example 92, 2-((2-methoxy-4-(1-methyl-1H-pyrazol-4-yl)phenyl)amino)-4-((tetrahydro-2H-pyran-4-yl)amino)-7H-pyrrolo[2,3-d] pyrimidine-5-carbonitrile] | < 100 | < 100 | < 50
COc1cc(-c2c(C)noc2C)ccc1Nc1nc(NC2CCOCC2)c2c(C#N)c[nH]c2n1 [Example 91] | < 100 | < 100 | < 50
COc1cc(-c2ccnn2C)ccc1Nc1nc(C2CC2)c2c(C#N)c[nH]c2n1 [Example 111, 4-cyclopropyl-2-((2-methoxy-4-(1-methyl-1H-pyrazol-5-yl)phenyl)amino)-7H-pyrrolo[2,3-d] pyrimidine-5-carbonitrile] | < 100 | < 100 | < 50

Now from value to compound:

GI50 (MDA-MB-231 cells) [nM] | GI50 (SHP-77) [nM] | IC50 (TTK) [nM] | SMILES
< 100 | < 100 | < 50 | COC[C@@H](C)Nc1nc(Nc2ccc(-c3cnn(C)c3)c3c2OCCO3)nc2[nH]cc(C#N)c12 [Example 169]
< 100 | < 100 | < 50 | COc1cc(-c2ccnn2C)ccc1Nc1nc(NC2CCC(F)(F)C2)c2c(C#N)c[nH]c2n1 (stereo not drawn) [Example 110, 4-((3,3-difluorocyclopentyl)amino)-2-((2-methoxy-4-(l-methyl-1H-pyrazol-5-yl)phenyl)amino)-7H-pyrrolo[2,3-d] pyrimidine-5-carbonitrile]
< 100 | < 100 | 50 to 200 | Cn1nccc1-c1ccc(Nc2nc(NCC(C)(C)C)c3c(C#N)c[nH]c3n2)c2c1OCCO2 [Example 60, 2-((8-(1-methyl-1H-pyrazol-5-yl)-2,3-dihydrobenzo[b][1,4]dioxin-5-yl)amino)-4-(neopentylamino)-7H-pyrrolo[2,3-d] pyrimidine-5-carbonitrile]
100 to 1000 | 100 to 1000 | < 50 | N#Cc1c[nH]c2nc(Nc3ccc(N4CCCS4(=O)=O)c(F)c3)nc(NC3CCOCC3)c12 [Example 29]
< 100 | < 100 | < 50 | COc1cc(Nc2nc(NC3CCOC(C)(C)C3)c3c(C#N)c[nH]c3n2)ccc1-c1ccnn1C (stereo not drawn) [Example 162, 4-((2,2-dimethyltetrahydro-2H-pyran-4-yl)amino)-2-((3-methoxy-4-(1-methyl-1H-pyrazol-5-yl)phenyl)amino)-7H-pyrrolo[2,3-d] pyrimidine-5-carbonitrile]
< 100 | < 100 | < 50 | COc1cc(-n2ccnc2C)ccc1Nc1nc(NC2CCOCC2)c2c(C#N)c[nH]c2n1 [Example 93, 2-((2-methoxy-4-(2-methyl-1H-imidazol-1-yl)phenyl)amino)-4-((tetrahydro-2H-pyran-4-yl)amino)-7H-pyrrolo[2,3-d] pyrimidine-5-carbonitrile]
